Measured values as given in the NIST ThermoML archive (doi:10.1021/je025630q).

Experiment: compressibility factor (dimensionless); xn = mol fraction of the nth substance listed
Details: Gas, Burnett expansion method

CF [fluoromethane] + O=C=O
Details	compressibility factor
303.15 K, 126.9 kPa, x2 = 0.283	0.995
303.15 K, 139.3 kPa, x2 = 0.402	0.9955
303.15 K, 155.9 kPa, x2 = 0.59	0.9951
303.15 K, 174.7 kPa, x2 = 0.798	0.9946
303.15 K, 188.9 kPa, x2 = 0.283	0.9896
303.15 K, 207.3 kPa, x2 = 0.402	0.9896
303.15 K, 231.9 kPa, x2 = 0.59	0.9892
303.15 K, 259.9 kPa, x2 = 0.798	0.9886
303.15 K, 280.7 kPa, x2 = 0.283	0.9823
303.15 K, 308 kPa, x2 = 0.402	0.9821
303.15 K, 344.5 kPa, x2 = 0.59	0.9815
303.15 K, 386 kPa, x2 = 0.798	0.9807
303.15 K, 415.8 kPa, x2 = 0.283	0.9721
303.15 K, 456.1 kPa, x2 = 0.402	0.9715
303.15 K, 510 kPa, x2 = 0.59	0.9708
303.15 K, 571.5 kPa, x2 = 0.798	0.97
303.15 K, 613.1 kPa, x2 = 0.283	0.9576
303.15 K, 672.2 kPa, x2 = 0.402	0.9564
303.15 K, 751.4 kPa, x2 = 0.59	0.9555
303.15 K, 842 kPa, x2 = 0.798	0.9547
303.15 K, 897.8 kPa, x2 = 0.283	0.9368
303.15 K, 983.5 kPa, x2 = 0.402	0.9349
303.15 K, 1099.1 kPa, x2 = 0.59	0.9337
303.15 K, 1231.1 kPa, x2 = 0.798	0.9326
303.15 K, 1300.8 kPa, x2 = 0.283	0.9066
303.15 K, 1423.2 kPa, x2 = 0.402	0.9038
303.15 K, 1589.6 kPa, x2 = 0.59	0.9021
303.15 K, 1779.6 kPa, x2 = 0.798	0.9006
303.15 K, 1854.5 kPa, x2 = 0.283	0.8635
303.15 K, 2025.1 kPa, x2 = 0.402	0.8591
303.15 K, 2259.3 kPa, x2 = 0.59	0.8566
303.15 K, 2527 kPa, x2 = 0.798	0.8543
303.15 K, 2578.9 kPa, x2 = 0.283	0.8022
303.15 K, 2808.4 kPa, x2 = 0.402	0.7959
303.15 K, 3127.5 kPa, x2 = 0.59	0.7921
303.15 K, 3455.9 kPa, x2 = 0.283	0.7182
303.15 K, 3491.8 kPa, x2 = 0.798	0.7886
303.15 K, 3745.5 kPa, x2 = 0.402	0.7091
303.15 K, 4156.5 kPa, x2 = 0.59	0.7033
303.15 K, 4628.3 kPa, x2 = 0.798	0.6983
313.15 K, 128.9 kPa, x2 = 0.206	0.9928
313.15 K, 139.2 kPa, x2 = 0.778	1
313.15 K, 156.2 kPa, x2 = 0.593	0.9925
313.15 K, 175 kPa, x2 = 0.408	0.9921
313.15 K, 192.3 kPa, x2 = 0.206	0.9894
313.15 K, 207.3 kPa, x2 = 0.778	0.9946
313.15 K, 233 kPa, x2 = 0.593	0.989
313.15 K, 260.7 kPa, x2 = 0.408	0.9874
313.15 K, 286.2 kPa, x2 = 0.206	0.9837
313.15 K, 308.2 kPa, x2 = 0.778	0.9881
313.15 K, 346.7 kPa, x2 = 0.593	0.9829
313.15 K, 387.2 kPa, x2 = 0.408	0.9799
313.15 K, 424.5 kPa, x2 = 0.206	0.9746
313.15 K, 457.5 kPa, x2 = 0.778	0.9798
313.15 K, 514.3 kPa, x2 = 0.593	0.974
313.15 K, 573.2 kPa, x2 = 0.408	0.9689
313.15 K, 626.8 kPa, x2 = 0.206	0.9613
313.15 K, 676.8 kPa, x2 = 0.778	0.9683
313.15 K, 759.4 kPa, x2 = 0.593	0.9608
313.15 K, 843.8 kPa, x2 = 0.408	0.9529
313.15 K, 919.1 kPa, x2 = 0.206	0.9417
313.15 K, 996 kPa, x2 = 0.778	0.9519
313.15 K, 1113.9 kPa, x2 = 0.593	0.9415
313.15 K, 1231.8 kPa, x2 = 0.408	0.9293
313.15 K, 1334.2 kPa, x2 = 0.206	0.9132
313.15 K, 1453.8 kPa, x2 = 0.778	0.9282
313.15 K, 1617 kPa, x2 = 0.593	0.913
313.15 K, 1775.9 kPa, x2 = 0.408	0.895
313.15 K, 1907.6 kPa, x2 = 0.206	0.8722
313.15 K, 2096.6 kPa, x2 = 0.778	0.8943
313.15 K, 2311.9 kPa, x2 = 0.593	0.8721
313.15 K, 2512.5 kPa, x2 = 0.408	0.846
313.15 K, 2665.8 kPa, x2 = 0.206	0.8143
313.15 K, 2967.7 kPa, x2 = 0.778	0.8457
313.15 K, 3229.5 kPa, x2 = 0.593	0.8138
313.15 K, 3455.2 kPa, x2 = 0.408	0.7772
313.15 K, 3600.8 kPa, x2 = 0.206	0.7348
313.15 K, 4083.3 kPa, x2 = 0.778	0.7773
313.15 K, 4357.3 kPa, x2 = 0.593	0.7335
313.15 K, 4556.4 kPa, x2 = 0.408	0.6847
313.15 K, 4622.8 kPa, x2 = 0.206	0.6302
313.15 K, 5382.3 kPa, x2 = 0.778	0.6845
313.15 K, 5581 kPa, x2 = 0.593	0.6277
313.15 K, 5645.6 kPa, x2 = 0.408	0.5668
323.15 K, 133.2 kPa, x2 = 0.378	0.9948
323.15 K, 137 kPa, x2 = 0.791	0.995
323.15 K, 142.6 kPa, x2 = 0.619	0.9967
323.15 K, 156.6 kPa, x2 = 0.189	0.9918
323.15 K, 198.7 kPa, x2 = 0.378	0.9914
323.15 K, 204.4 kPa, x2 = 0.791	0.9921
323.15 K, 212.6 kPa, x2 = 0.619	0.9926
323.15 K, 233.4 kPa, x2 = 0.189	0.9875
323.15 K, 295.9 kPa, x2 = 0.378	0.986
323.15 K, 304.7 kPa, x2 = 0.791	0.9877
323.15 K, 316.4 kPa, x2 = 0.619	0.9871
323.15 K, 347.1 kPa, x2 = 0.189	0.9809
323.15 K, 439.4 kPa, x2 = 0.378	0.9783
323.15 K, 453 kPa, x2 = 0.791	0.9812
323.15 K, 469.9 kPa, x2 = 0.619	0.9793
323.15 K, 514.3 kPa, x2 = 0.189	0.971
323.15 K, 650.1 kPa, x2 = 0.378	0.967
323.15 K, 671.5 kPa, x2 = 0.791	0.9715
323.15 K, 695.4 kPa, x2 = 0.619	0.9682
323.15 K, 758.3 kPa, x2 = 0.189	0.9564
323.15 K, 956.3 kPa, x2 = 0.378	0.9502
323.15 K, 990.6 kPa, x2 = 0.791	0.9574
